Consider one molecule from patent US20260137696A1, “Compositions Comprising an Inhibitor of Galectin-3” (University of Liverpool, priority 2023, published 2026).

Test [1] concerns SW620^Gal3− cells. Put plainly: Tumour growth and metastasis in chick chorioallantoic membrane (CAM) model. The test is classed as in vivo, chicken embryos. Particulars: 24 μM; Galectin-3-suppressed SW620^Gal3−. How it is done:
(§1) Effect of the compound of Formula I on tumour formation, growth and metastasis of SW620Gal3+ and SW620Gal3− cells was assessed in the chick chorioallantoic membrane (CAM) model. Galectin-3-expressing SW620^Gal3+ and Galectin-3-suppressed SW620^Gal3− cells were transfected with pHIV-Luc-ZsGreen vector and engrafted to the CAM on embryonic day 7. The compound of Formula I (24 μM) was injected into the allantoic cavity on the following day and the tumour formation and growth was analysed by fluorescence microscopy (FIG. 10A) and IVIS imaging (FIGS. 10B-FIG. 10D) on embryonic day 14. Seventy percent eggs grafted with Galectin-3-expressing SW620^Gal3+ cells formed various sized tumours in the absence of Formula I while the number of eggs formed in the Formula I treated group was reduced to 30%.
as §1, with “SW620Gal3−” for “SW620Gal3− cells”, “SW620^Ga13−” for “SW620^Gal3−”
(§2) Fertilised white leghorn chicken eggs were obtained from Lees Lane Poultry (Wirral, UK). The eggs were windowed on embryonic Day 3 with 4 ml albumin removed. The eggs were incubated at 37° C. in 35-40% humidity until embryonic day 7. ZsGreen- and luciferase-expressing SW620Gal3+ and SW620Gal3− cells (2.5×10^6) were then embedded on the chorioallantoic membrane (CAM). On embryonic Days 8 and 11, the inhibitors (24 μM) or control DMSO/PBS were injected into the allantoic cavity. The eggs were incubated until embryonic Day 14 The eggs were imaged using a Microscope as well as by IVIS. The embryos were then immediately decapitated. Organs were examined under fluorescence microscope for presence of ZsGreen-labelled tumour cells. Ethical approval for the experiments using chick embryos up to embryonic Day 14 was obtained from the Liverpool Animal Welfare and Ethical Review Body.

In test [2] the test system is SW620^Gal3+ cells. Described as above. It counts as in vivo, chicken embryos. The protocol: as §1
as §1, with “SW620Gal3−” for “SW620Gal3− cells”, “SW620^Ga13−” for “SW620^Gal3−”
as §2

As to `C[C@H]1COc2c(N3CCN(C)CC3)c(F)cc3c(=O)c(C(=O)NNc4ccc(N)cc4)cn1c23` [Formula I], the “tumour formation or growth” value in test [1] is recorded as “no effect”. Moreover, the “number of eggs that formed tumours” value in test [2] (24 μM into allantoic cavity, embryonic day 14, 70% without Formula I) worked out at 30%. In addition, the “reduction of luminescence intensity in the tumours” value in test [2] (24 μM, IVIS imaging, embryonic day 14, vs group without Formula I) is listed as 66%. Also, in test [2] (24 μM, 25% in the absence of Formula I), the “tumours showing metastasis to other organs” value was “none”.
